Key:
[1] = target: D(2) dopamine receptor (Homo sapiens, UniProt P14416); assay: Binding Activity Assay: Human 5-HT2A Receptor, Human 5-HT7 Receptor, and Human D2 Receptor: Binding affinity of the present compound for human 5-HT2A receptor, human 5-HT7 receptor, and human D2 receptor was measured by the following procedures.CHO cell membrane fraction in which human 5-HT2A receptor, human 5-HT7 receptor, or human D2 receptor was expressed was purchased from PerkinElmer, Inc. …
[2] = target: 5-hydroxytryptamine receptor 7 (Homo sapiens, UniProt P34969); assay: as above
5-hydroxytryptamine receptor 7, sequence (P34969 whole entry): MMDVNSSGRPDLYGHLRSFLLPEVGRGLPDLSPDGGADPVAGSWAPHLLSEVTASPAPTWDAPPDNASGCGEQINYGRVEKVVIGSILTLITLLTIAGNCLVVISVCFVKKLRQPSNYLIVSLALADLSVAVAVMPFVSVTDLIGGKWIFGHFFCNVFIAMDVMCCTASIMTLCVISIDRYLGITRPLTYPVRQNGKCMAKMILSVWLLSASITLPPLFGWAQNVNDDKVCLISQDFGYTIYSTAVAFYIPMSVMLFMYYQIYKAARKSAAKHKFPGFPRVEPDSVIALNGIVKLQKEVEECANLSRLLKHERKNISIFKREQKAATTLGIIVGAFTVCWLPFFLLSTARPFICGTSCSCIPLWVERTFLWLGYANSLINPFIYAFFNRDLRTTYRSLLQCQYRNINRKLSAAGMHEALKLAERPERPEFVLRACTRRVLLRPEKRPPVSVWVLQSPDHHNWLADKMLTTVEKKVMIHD

D(2) dopamine receptor, sequence (P14416 whole entry): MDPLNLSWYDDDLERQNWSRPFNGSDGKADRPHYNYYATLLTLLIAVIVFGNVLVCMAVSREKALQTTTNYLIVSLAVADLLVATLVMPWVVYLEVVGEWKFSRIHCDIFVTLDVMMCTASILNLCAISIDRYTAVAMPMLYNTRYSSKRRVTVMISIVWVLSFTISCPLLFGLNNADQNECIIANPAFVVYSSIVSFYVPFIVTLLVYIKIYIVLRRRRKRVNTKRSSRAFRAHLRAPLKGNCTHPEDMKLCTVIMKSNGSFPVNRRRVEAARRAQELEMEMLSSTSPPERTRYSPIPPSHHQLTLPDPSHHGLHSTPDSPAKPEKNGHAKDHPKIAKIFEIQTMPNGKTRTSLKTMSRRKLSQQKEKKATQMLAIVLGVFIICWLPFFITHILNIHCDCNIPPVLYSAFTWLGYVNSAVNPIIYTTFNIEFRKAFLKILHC

Row | Ki [1] [nM] | Ki [2] [nM] | SMILES
1 | < 100 | 1.1 | CCN(CCN1CCC(c2noc3cc(F)ccc23)CC1)C(=O)C1(O)CC1
2 | 155 | 4.9 | CCN(CCN1CCC(c2noc3cc(F)ccc23)CC1)C(=O)CCO
3 | > 1000 | 20.3 | CCN(CCN1CCC(c2noc3cc(F)c(C)cc23)CC1)C(=O)[C@H](C)O
